{"source": "paper PMC10381170", "about": "“1,3,4-Oxadiazole and 1,3,4-Thiadiazole Nortopsentin Derivatives against Pancreatic Ductal Adenocarcinoma: Synthesis, Cytotoxic Activity, and Inhibition of CDK1” (Marine Drugs, 2023)", "key": {"BxPC-3 cells [1]": {"system": "BxPC-3 cells", "test": "SRB antiproliferative assay, BxPC-3", "format": "cell-based, human", "description": "(§1) The cytotoxic activity of the nortopsentin derivatives 3b, 3e, 4c, 5b, and 6c on pancreatic cancer cells (BxPC-3, Panc-1, Suit-2, Capan-1, PaTu-T, primary PDAC-3 and resistant Panc-1-GR cells) was determined by the sulforhodamine B (SRB) chemosensitivity assay, as described previously. Cells were plated in 96-well flat-bottom plates at final concentrations ranging from 3000–5000 cells/well in 100 µL of medium. After a 24 h pre-incubation period, cells were treated with the compounds at nine screening concentrations (from 0.1 μM to 40 μM) in triplicate and incubated at 37 °C for 72 h. After the treatment, cells were fixed with 25 µL of cold 50% trichloroacetic acid (TCA) for each well and incubated at 4 °C for 1 h. Afterwards, plates were washed five times with demi-water and air-dried overnight. Then, the plates were stained with 50 µL of 0.4% SRB solution in 1% acetic acid for 15 min. The excess stain was rinsed off by placing the plates under running 1% acetic acid and allowed to dry at room temperature overnight. SRB staining was rinsed with 150 µL tris(hydroxymethyl)aminomethane solution pH = 8.8 (TRIS-base), and the optical density (OD) was read at 492 nm. Each assay was performed in triplicate and assays were repeated at least three times. The comparison of the average optical density of the growth in control wells with that in the sample wells allowed the estimation of the percentage of cell growth, using the following equation: % Cell Growth = (mean ODcompound − mean ODday zero plate)/(mean ODcells − mean ODday zero plate) × 100\n(§2) The results obtained were adjusted by the day zero plate (wells containing cells growing for only 24 h) and normalized by the control cells (wells with untreated cells) to obtain the rate of viable cells."}, "CDK1": {"system": "CDK1", "test": "CDK1 ELISA in Suit-2", "format": "cell-based, human", "details": "Suit-2, 10 µM, 24 h, vs DMSO control, p < 0.01", "description": "The expression of CDK1 was detected and quantified using an Enzyme-Linked Immunosorbent Assay (ELISA, Human cyclin-dependent kinase 1 (CDK1) ELISA Kit, Catalog Number: MBS707090) according to the manufacturer’s protocol and our previous studies. Volumes of 100 µL of the standard and the sample were added for each well, and the plates were incubated for 2 h at 37 °C. Then, the liquid was removed, and 100 µL of biotin-antibody was added to each well; the plates were then incubated for 1 h at 37 °C. The medium was removed, and the plates were washed with wash buffer (200 µL). Subsequently, 100 µL of HRP-avidin was added to each well, and the plates were incubated for 1 h at 37 °C. The washing process was repeated five times. At the end, 90 µL of TMB substrate was added to each well, and the plates were incubated for 30 min at 37 °C in the dark. Finally, 50 µL of stop solution was added to each well. The optical density of each well was determined using a microplate reader set to 450 nm."}, "Panc-1 cells": {"system": "Panc-1 cells", "test": "SRB antiproliferative assay, Panc-1", "format": "cell-based, human", "description": "as §1, §2"}, "[2]": {"system": "normal human skin fibroblasts Hs27", "test": "SRB cytotoxicity on normal fibroblasts", "format": "cell-based", "description": "The compound was tested at eight different concentrations ranging from 0.31 μM to 40 μM using the SRB assay. […] At the highest concentration tested (40 μM), only 18% growth inhibition was observed after 72 h of exposure. […] These findings provide evidence of the potential safety of compound 3b for further development as a therapeutic agent.\nas §1"}, "BxPC-3 cells [3]": {"system": "BxPC-3 cells", "test": "Scratch wound-healing assay, BxPC-3", "format": "cell-based, human", "details": "BxPC-3, 8 h, 4 × IC50, untreated = 100% wound closure", "description": "Cell migration was assessed using a wound-healing assay, as described previously. A total of 5 × 10^4 cells/well were seeded in a 96-well plate, to form a confluent monolayer. Scratches were created in confluent cell layers using the sterile scratch tool. The detached cells following scratch induction were removed and new medium was added to the wells. Cells were next treated with compounds 3b and 5b at a concentration of 4 × IC50. Cells growing in a complete medium were maintained at 37 °C with a supply of 5% CO2/95% air atmosphere and 100% relative humidity. The progress of wound closure was observed and documented at various time points (0th, 4th, 8th, 20th, and 24th h) using phase-contrast microscopy. Pictures of the plates were taken using the Universal Grab 6.3 software (DCILabs) from a computer connected to a Leica microscope with a JAI TMC-1327 camera.\nThe percentage of migration was calculated using the following equation:%Migration = (Width of the wound at T = 0 − Width of the wound at T = X)/(Width of the wound at T = 0) × 100"}, "Capan-1 cells": {"system": "Capan-1 cells", "test": "SRB antiproliferative assay, Capan-1", "format": "cell-based, human", "description": "as §1, §2"}, "PDAC cells": {"system": "PDAC cells", "test": "SRB antiproliferative assay, whole PDAC panel", "format": "cell-based", "details": "Homo sapiens; seven PDAC models, 72 h; read-out: IC50 values, range over the PDAC cell panel", "description": "as §1, with “The comparison of the average optical density of the growth in control wells with that in the sample wells allowed the estimation of the percentage of cell growth, using the following equation: % Cell Growth = (mean ODcompound − mean ODday zero plate)/(mean ODcells − mean ODday zero plate) × 100” left out"}, "PDAC-3 cells": {"system": "PDAC-3 cells", "test": "SRB antiproliferative assay, primary culture PDAC-3", "format": "cell-based, human", "description": "as §1, §2"}, "PaTu-T cells": {"system": "PaTu-T cells", "test": "SRB antiproliferative assay, PaTu-T", "format": "cell-based, human", "description": "as §1, §2"}}}
{"smiles": "Cn1cc(-c2nnc(-c3cn(C)c4ncccc34)o2)c2ccccc21", "note": "[3b, 1-methyl-3-[5-(1-methyl-1H-indol-3-yl)-1,3,4-oxadiazol-2-yl]-7-azaindole]", "values": [{"measurement": "Cell growth percentage", "setting": "BxPC-3 cells [1]; BxPC-3, 10 μM, 72 h exposure", "value": 11.10, "unit": "%"}, {"measurement": "IC50", "setting": "BxPC-3 cells [1]; Homo sapiens, BxPC-3, 72 h, mean ± SEM, read-out: Half-maximal inhibitory concentration (IC50)", "value": "2100 ± 6", "unit": "nM"}, {"measurement": "CDK1 expression by ELISA", "setting": "CDK1", "value": "reduction in CDK1 expression"}, {"measurement": "IC50", "setting": "Panc-1 cells; Homo sapiens, Panc-1, 72 h, mean ± SEM, read-out: Half-maximal inhibitory concentration (IC50)", "value": "2500 ± 550", "unit": "nM"}, {"measurement": "Cell growth percentage", "setting": "Panc-1 cells; Panc-1, 10 μM, 72 h exposure", "value": 9.12, "unit": "%"}, {"measurement": "growth inhibition", "setting": "[2]; Hs27, 40 μM (highest concentration), 72 h", "value": 18, "unit": "%"}, {"measurement": "cytotoxicity towards normal fibroblast cells", "setting": "[2]; Hs27, 0.31-40 μM", "value": "relatively non-toxic"}, {"measurement": "cell growth rate", "setting": "[2]; Hs27, concentrations below 10 μM, 72 h", "value": "~100", "unit": "%"}, {"measurement": "percentage of cells migrating", "setting": "BxPC-3 cells [3]", "value": 39, "unit": "%"}, {"measurement": "Cell growth percentage", "setting": "Capan-1 cells; Capan-1, 10 μM, 72 h exposure", "value": 18.33, "unit": "%"}, {"measurement": "IC50", "setting": "Capan-1 cells; Homo sapiens, Capan-1, 72 h, mean ± SEM, read-out: Half-maximal inhibitory concentration (IC50)", "value": "2600 ± 620", "unit": "nM"}, {"measurement": "IC50", "setting": "PDAC cells", "value": "1400 to 8100", "unit": "nM"}, {"measurement": "melting point", "value": 239, "unit": "°C"}, {"measurement": "IC50", "setting": "PDAC-3 cells; Homo sapiens, PDAC-3, 72 h, mean ± SEM, read-out: Half-maximal inhibitory concentration (IC50)", "value": "8100 ± 140", "unit": "nM"}, {"measurement": "Cell growth percentage", "setting": "PDAC-3 cells; PDAC-3, 10 μM, 72 h exposure", "value": 38.35, "unit": "%"}, {"measurement": "Cell growth percentage", "setting": "PaTu-T cells; 10 μM, 72 h exposure", "value": 17.13, "unit": "%"}, {"measurement": "IC50", "setting": "PaTu-T cells; Homo sapiens, 72 h, mean ± SEM, read-out: Half-maximal inhibitory concentration (IC50)", "value": "3200 ± 420", "unit": "nM"}]}
